The source of these data is publication PMC11740144 (ACS Omega, 2024).

In data set [1] the target is Cathepsin L (Homo sapiens, UniProt P07711). The experiment in a line: Inhibition of human protease Cathepsin L (data not shown). Type of data set: biochemical.
The target in data set [2] is Furin (Homo sapiens, UniProt P09958). Kind of data set: Inhibition of human protease Furin (data not shown). Type of data set: biochemical.
Data set [3] has as its target TMPRSS2 (Homo sapiens, UniProt O15393). The experiment in a line: Inhibition of human protease TMPRSS2 (data not shown). Type of data set: biochemical.
Data set [4] in a line: Cytotoxicity by acid phosphatase assay. Type of data set: cell-based. Conditions: African green monkey; VeroE6 cells, 3 days incubation. As to the method: Cytotoxicity of the inhibitors was determined by using acid phosphatase assay. Briefly, VeroE6 cells were seeded onto a 96-well culture plate at a concentration of 2 × 10^4 cells per well. Next day, the medium was removed, and each well was washed once with PBS before adding DMEM containing 2% FBS and different concentrations of an inhibitor. Next, DMEM containing 2 μg/mL TPCK-trypsin was added. After 1 h of incubation at 37 °C, the medium was removed, and cells were washed by PBS. Then, DMEM containing 2% FBS and different concentrations of an antiviral was added. After 3 days of incubation at 37 °C, the medium was removed, and each well was washed once with PBS. Next, buffer containing 0.1 M sodium acetate (pH = 5.0), 0.1% Triton X-100, and 5 mM p-nitrophenyl phosphate was added. After the mixture was incubated at 37 °C for 2 h, 1 N NaOH was added to stop the reaction. The absorbance was then determined by an ELISA reader (VERSAmax, Molecular Devices, Sunnyvale, CA) at a wavelength of 405 nm. The percentage of cytotoxicity was calculated using the following formula: cytotoxicity % = [1 – (At/As) × 100]%, where At and As refer to the absorbance of a tested substance and solvent control, respectively. The 50% cytotoxicity concentration (CC50) was defined as the concentration reducing 50% of cell viability. […]

The target of data set [5] is RBD:ACE2 interaction (Severe acute respiratory syndrome coronavirus 2, UniProt P0DTC2). Kind of data set: RBD:ACE2 interaction inhibition, NanoBiT kit (Promega). Also on record: species or system delta SARS-CoV-2 RBD / human ACE2. Conditions: RBD from delta SARS-CoV-2, triplicate; read-out: IC50 of RBD:ACE2 binding inhibition.
Data set [6] concerns SARS-CoV-2 delta virus (NTU92). Kind of data set: Plaque reduction assay, entry treatment (compound preincubated with the virus). Type of data set: cell-based. The note with it: Severe acute respiratory syndrome coronavirus 2, Vero C1008, VeroE6 cells, triplicate, read-out: EC50 against delta SARS-CoV-2 infecting VeroE6 cells. On the technique in general: In a plaque reduction assay, fewer plaques than in the control indicate reduced infectivity or spread.

Data set [7] relates to SARS-CoV-2. Format: cell-based.
Data set [8] concerns VeroE6 host cells. Conditions: cited from earlier work.
The test system of data set [9] is SARS-CoV-2. Conditions: VeroE6 host cells; read-out: EC50 of inhibiting SARS-CoV-2 entry into VeroE6 host cells; cited from earlier work.

Chain of TMPRSS2 (O15393 whole entry): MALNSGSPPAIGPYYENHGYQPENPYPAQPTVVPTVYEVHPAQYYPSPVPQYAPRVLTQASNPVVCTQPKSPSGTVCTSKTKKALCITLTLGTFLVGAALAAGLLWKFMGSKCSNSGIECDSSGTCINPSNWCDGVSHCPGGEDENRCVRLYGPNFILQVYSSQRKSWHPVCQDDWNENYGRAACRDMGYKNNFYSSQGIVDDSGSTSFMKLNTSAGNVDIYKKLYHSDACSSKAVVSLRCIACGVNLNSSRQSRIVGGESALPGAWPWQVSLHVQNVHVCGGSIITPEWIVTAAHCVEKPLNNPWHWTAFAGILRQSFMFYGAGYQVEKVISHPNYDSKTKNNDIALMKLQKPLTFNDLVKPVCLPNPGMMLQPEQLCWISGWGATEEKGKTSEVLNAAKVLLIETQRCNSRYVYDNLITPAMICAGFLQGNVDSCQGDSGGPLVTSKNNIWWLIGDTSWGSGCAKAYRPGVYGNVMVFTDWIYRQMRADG
Chain of Cathepsin L (P07711 114-333): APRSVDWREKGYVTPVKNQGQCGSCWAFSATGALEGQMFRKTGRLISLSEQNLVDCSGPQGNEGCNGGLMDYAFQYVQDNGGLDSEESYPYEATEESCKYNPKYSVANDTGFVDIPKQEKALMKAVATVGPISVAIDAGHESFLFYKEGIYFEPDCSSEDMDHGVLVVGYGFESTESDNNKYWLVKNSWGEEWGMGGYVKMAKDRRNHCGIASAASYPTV
Chain of Furin (P09958 108-794): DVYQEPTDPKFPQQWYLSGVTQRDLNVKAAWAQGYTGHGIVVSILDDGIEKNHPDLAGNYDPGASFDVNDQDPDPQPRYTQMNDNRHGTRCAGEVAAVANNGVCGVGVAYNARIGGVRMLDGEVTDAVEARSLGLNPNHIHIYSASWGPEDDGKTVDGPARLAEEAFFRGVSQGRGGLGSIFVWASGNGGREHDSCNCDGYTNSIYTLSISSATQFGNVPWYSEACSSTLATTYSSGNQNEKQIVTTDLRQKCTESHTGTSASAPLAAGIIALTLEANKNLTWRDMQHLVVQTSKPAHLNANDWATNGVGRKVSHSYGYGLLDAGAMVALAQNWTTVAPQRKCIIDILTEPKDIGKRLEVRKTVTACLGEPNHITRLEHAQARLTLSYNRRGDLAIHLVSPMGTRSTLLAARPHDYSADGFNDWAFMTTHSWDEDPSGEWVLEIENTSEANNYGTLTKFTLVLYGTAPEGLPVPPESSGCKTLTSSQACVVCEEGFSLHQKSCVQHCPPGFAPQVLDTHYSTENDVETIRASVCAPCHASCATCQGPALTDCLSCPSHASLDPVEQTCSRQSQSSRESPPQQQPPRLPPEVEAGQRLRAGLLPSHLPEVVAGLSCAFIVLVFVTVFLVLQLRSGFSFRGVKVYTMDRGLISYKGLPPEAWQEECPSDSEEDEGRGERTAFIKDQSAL

As usually defined, the CC50 is the concentration that lowers cell viability or growth by half. As usually defined, the IC50 is the concentration that gives 50% inhibition. On to `O=C(c1ccccc1)[C@H]1[C@@H]2c3ccccc3C=CN2[C@@H](C(=O)c2ccccc2)[C@@H]2c3ccccc3C=CN12` [Compound 50], for which the “inhibition of Cathepsin L” value in [1] is recorded as “no inhibition”. For the same molecule, in data set [2], the “inhibition of Furin” value was “no inhibition”. Further, in data set [3], the “inhibition of TMPRSS2” value is “no inhibition”. Besides, the CC50 at 3 days in data set [4] was over 100 µM. Also, the half-maximal inhibitory concentration (IC50) in [5] came to 32.7 ± 8.9 µM. Moreover, the EC50 in data set [6] amounted to 26.5 ± 6.9 µM. Also, in data set [7], the “anti-SARS-CoV-2 activity under the postentry treatment” value was “not under the postentry treatment”.

For the molecule `O=C(c1ccc(Cl)cc1)[C@H]1[C@@H]2c3ccccc3C=CN2[C@@H](C(=O)c2ccc(Cl)cc2)[C@@H]2c3ccccc3C=CN12` [Compound 96], in [1], the “inhibition of Cathepsin L” value is reported as “no inhibition”. In addition, the “inhibition of Furin” value in data set [2] was “no inhibition”. In addition, the “inhibition of TMPRSS2” value in data set [3] is “no inhibition”. This molecule also gave a CC50 at 3 days in [4] of over 100 µM. Besides, the IC50 in data set [5] came to 10.4 ± 2.1 µM. The EC50 in data set [6] was 17 ± 3.7 µM. In [7], the “anti-SARS-CoV-2 activity under the postentry treatment” value is given as “not under the postentry treatment”.

Regarding berbamine hydrochloride, the half-maximal cytotoxic concentration (CC50) in data set [8] is 66.9 µM. In addition, in data set [9], the EC50 is 1.73 µM.
